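Compound exposure: 48 hours, 5 concentrations, 96-well plates. GI50 marks 50% less growth.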 Active and inactive are the calls of the source. Rule as the data show it: active = GI50 up to about 1.1 µM and inactive = higher.
Assays:
Assay in all cases: NCI-60 cell line screen, 48 h
SK-MEL-28 = system: SK-MEL-28
NCI-H460 = system: NCI-H460
HCT-116 = system: HCT-116
SNB-19 = system: SNB-19
HT-29 = system: HT-29
UACC-62 = system: UACC-62
K562 = system: K562
MOLT-4 = system: MOLT-4
SK-MEL-2 = system: SK-MEL-2
SF-268 = system: SF-268
SK-OV-3 = system: SK-OV-3
OVCAR-3 = system: OVCAR-3
CCRF-CEM = system: CCRF-CEM
NCI-H226 = system: NCI-H226
SF-539 = system: SF-539
UACC-257 = system: UACC-257
KM12 = system: KM12
HL-60 = system: HL-60
HOP-92 = system: HOP-92
NCI-H522 = system: NCI-H522

SMILES | GI50 (SK-MEL-28) | GI50 (NCI-H460) | GI50 (HCT-116) | GI50 (SNB-19) | GI50 (HT-29) | GI50 (UACC-62) | GI50 (K562) | GI50 (MOLT-4) | GI50 (SK-MEL-2) | GI50 (SF-268) | GI50 (SK-OV-3) | GI50 (OVCAR-3) | GI50 (CCRF-CEM) | GI50 (NCI-H226) | GI50 (SF-539) | GI50 (UACC-257) | GI50 (KM12) | GI50 (HL-60) | GI50 (HOP-92) | GI50 (NCI-H522)
O=C(O)C1(C(O)c2ccccc2)SCCCS1 (stereo not given) | > 10 µM (inactive) | > 10 µM (inactive) | > 10 µM (inactive) | > 10 µM (inactive) | > 10 µM (inactive) | > 10 µM (inactive) | > 10 µM (inactive) | > 10 µM (inactive) | > 10 µM (inactive) | > 10 µM (inactive) | > 10 µM (inactive) | > 10 µM (inactive) | > 10 µM (inactive) | > 10 µM (inactive) | > 10 µM (inactive) | > 10 µM (inactive) | > 10 µM (inactive) | > 10 µM (inactive) | > 10 µM (inactive) | –
O=[N+]([O-])c1ccc(-c2nc3cc([N+](=O)[O-])ccc3[nH]2)cc1 | 40.6 µM (inactive) | 22 µM (inactive) | 19 µM (inactive) | 43.1 µM (inactive) | 28.4 µM (inactive) | 37 µM (inactive) | – | 29.9 µM (inactive) | 23.6 µM (inactive) | 44.9 µM (inactive) | 34.1 µM (inactive) | 42.1 µM (inactive) | – | 39.6 µM (inactive) | 23.5 µM (inactive) | 31 µM (inactive) | 24.8 µM (inactive) | – | 19.6 µM (inactive) | 11.4 µM (inactive)
CC1(O)OC(=O)C2=C1CCC1C2CCC2(C)C(O)CCC12 (stereo not given) | > 100 µM (inactive) | > 100 µM (inactive) | > 100 µM (inactive) | > 100 µM (inactive) | > 100 µM (inactive) | 46.3 µM (inactive) | > 100 µM (inactive) | > 10 µM (inactive) | – | > 100 µM (inactive) | – | > 100 µM (inactive) | > 100 µM (inactive) | > 100 µM (inactive) | > 100 µM (inactive) | > 100 µM (inactive) | > 100 µM (inactive) | > 100 µM (inactive) | > 100 µM (inactive) | > 100 µM (inactive)
CCOC(=O)CCSS(=O)(=O)C(F)(F)F | > 100 µM (inactive) | > 100 µM (inactive) | > 100 µM (inactive) | > 100 µM (inactive) | – | > 100 µM (inactive) | – | – | > 100 µM (inactive) | – | > 100 µM (inactive) | > 100 µM (inactive) | > 100 µM (inactive) | > 100 µM (inactive) | – | > 100 µM (inactive) | > 100 µM (inactive) | > 100 µM (inactive) | > 100 µM (inactive) | –
C=C1c2c(cc3c(c2O)c(=O)c2ccccc2n3C)OC1(C)C | > 100 µM (inactive) | 59 µM (inactive) | – | 34.4 µM (inactive) | 37.7 µM (inactive) | > 100 µM (inactive) | > 10 µM (inactive) | > 100 µM (inactive) | 40.3 µM (inactive) | 31.6 µM (inactive) | 20 µM (inactive) | > 100 µM (inactive) | > 100 µM (inactive) | 79.4 µM (inactive) | 35.2 µM (inactive) | – | – | > 100 µM (inactive) | 15 µM (inactive) | 2.95 µM (inactive)
COC(=O)C(C(=O)OC)C1CC(=O)c2c(Br)sc(Br)c21 (stereo not given) | 16.6 µM (inactive) | 18.6 µM (inactive) | 14.6 µM (inactive) | 20.5 µM (inactive) | 15.4 µM (inactive) | 13.5 µM (inactive) | 21 µM (inactive) | 3.33 µM (inactive) | 13.3 µM (inactive) | 18.5 µM (inactive) | 17.9 µM (inactive) | 2.06 µM (inactive) | 4.03 µM (inactive) | 22 µM (inactive) | 18.6 µM (inactive) | 22 µM (inactive) | 29.2 µM (inactive) | 21.2 µM (inactive) | 15.4 µM (inactive) | –
Oc1ccc(-c2nc3cc(C(F)(F)F)ccc3s2)cc1 | – | 15.4 µM (inactive) | 14.5 µM (inactive) | 16.7 µM (inactive) | 18.9 µM (inactive) | 13.9 µM (inactive) | 23.9 µM (inactive) | 27.2 µM (inactive) | 16.1 µM (inactive) | 16.1 µM (inactive) | 26 µM (inactive) | 15 µM (inactive) | 12.2 µM (inactive) | 17.3 µM (inactive) | 19.5 µM (inactive) | 18 µM (inactive) | 13.1 µM (inactive) | 18.1 µM (inactive) | – | 12.6 µM (inactive)
COC(=O)[C@@H]1O[C@]12[C@@H](CO[Si](C)(C)C(C)(C)C)O[C@@H](n1cc(C)c(=O)[nH]c1=O)[C@@H]2O[Si](C)(C)C(C)(C)C | 19.8 µM (inactive) | 11.6 µM (inactive) | 15.2 µM (inactive) | 10.3 µM (inactive) | 6.11 µM (inactive) | 17.9 µM (inactive) | 7.96 µM (inactive) | 2.84 µM (inactive) | 15 µM (inactive) | 15.4 µM (inactive) | 32.6 µM (inactive) | 14.6 µM (inactive) | 2.39 µM (inactive) | 21 µM (inactive) | 21.3 µM (inactive) | 22.4 µM (inactive) | 23 µM (inactive) | 3.12 µM (inactive) | – | 11.9 µM (inactive)
C/C(=N\Nc1nc2ccccc2[nH]1)c1cccc[n+]1[O-] | > 100 µM (inactive) | 49.2 µM (inactive) | 88.3 µM (inactive) | > 100 µM (inactive) | 32.1 µM (inactive) | 87.1 µM (inactive) | > 100 µM (inactive) | > 100 µM (inactive) | > 100 µM (inactive) | > 100 µM (inactive) | > 100 µM (inactive) | 37.6 µM (inactive) | > 100 µM (inactive) | 45.4 µM (inactive) | > 100 µM (inactive) | > 100 µM (inactive) | 44.7 µM (inactive) | – | 33.9 µM (inactive) | > 100 µM (inactive)
c1c2c(cc(-n3nnc4c3CCCCCC4)c1-n1nnc3c1CCCCCC3)CCCCCC2 | 17.2 µM (inactive) | 6.3 µM (inactive) | 5.7 µM (inactive) | 12.8 µM (inactive) | 6.93 µM (inactive) | 12.4 µM (inactive) | 4.36 µM (inactive) | 2.57 µM (inactive) | 13.1 µM (inactive) | 9.46 µM (inactive) | 14.8 µM (inactive) | 12.1 µM (inactive) | 3.79 µM (inactive) | 16 µM (inactive) | – | 11.7 µM (inactive) | 11.8 µM (inactive) | 3.8 µM (inactive) | 3.28 µM (inactive) | 0.485 µM (active)
CC(=O)OCC1OC(N2C(=O)NC(=O)C3C=C4CCCCC4=CC32)C(OC(C)=O)C1OC(C)=O (stereo not given) | > 100 µM (inactive) | > 100 µM (inactive) | > 100 µM (inactive) | > 100 µM (inactive) | – | > 100 µM (inactive) | > 100 µM (inactive) | > 100 µM (inactive) | > 100 µM (inactive) | – | > 100 µM (inactive) | > 100 µM (inactive) | > 100 µM (inactive) | – | > 100 µM (inactive) | > 100 µM (inactive) | – | > 100 µM (inactive) | > 100 µM (inactive) | > 100 µM (inactive)
Cc1cc(NC(=S)SCc2ccc(F)cc2)c([N+](=O)[O-])cc1C | 39.1 µM (inactive) | 36.7 µM (inactive) | 26.2 µM (inactive) | 23.2 µM (inactive) | 13.6 µM (inactive) | 15 µM (inactive) | 32.3 µM (inactive) | 3.29 µM (inactive) | – | 31.5 µM (inactive) | 32.3 µM (inactive) | 22.6 µM (inactive) | – | 16.6 µM (inactive) | 23.8 µM (inactive) | 21 µM (inactive) | 19.9 µM (inactive) | 16.9 µM (inactive) | 18.4 µM (inactive) | –
N#C/C(N)=C(C#N)/N=C/NCc1ccccc1 | > 100 µM (inactive) | > 100 µM (inactive) | > 100 µM (inactive) | > 100 µM (inactive) | > 100 µM (inactive) | 95.5 µM (inactive) | > 100 µM (inactive) | > 100 µM (inactive) | 38.4 µM (inactive) | > 100 µM (inactive) | > 100 µM (inactive) | > 100 µM (inactive) | > 100 µM (inactive) | > 100 µM (inactive) | > 100 µM (inactive) | > 100 µM (inactive) | > 100 µM (inactive) | > 100 µM (inactive) | – | > 100 µM (inactive)
O=c1c(-c2ccc(O)cc2)coc2cc(O)cc(O)c12 [GENISTEIN] | > 100 µM (inactive) | 42 µM (inactive) | – | 92 µM (inactive) | > 100 µM (inactive) | > 100 µM (inactive) | > 100 µM (inactive) | 40.4 µM (inactive) | – | > 100 µM (inactive) | – | – | > 10 µM (inactive) | 74.1 µM (inactive) | > 100 µM (inactive) | – | > 100 µM (inactive) | 69.8 µM (inactive) | > 100 µM (inactive) | 36.4 µM (inactive)
O=C(O)c1cnc2c(ccc3ncc(C(=O)O)c(O)c32)c1O | > 100 µM (inactive) | > 100 µM (inactive) | > 100 µM (inactive) | > 100 µM (inactive) | > 100 µM (inactive) | > 100 µM (inactive) | > 100 µM (inactive) | > 100 µM (inactive) | > 100 µM (inactive) | > 100 µM (inactive) | > 100 µM (inactive) | > 100 µM (inactive) | – | > 100 µM (inactive) | > 100 µM (inactive) | > 100 µM (inactive) | > 100 µM (inactive) | > 100 µM (inactive) | > 100 µM (inactive) | > 100 µM (inactive)

— ChEMBL document CHEMBL1201862, “PubChem BioAssay data set” (2004)
